Measured values as given in US12419305B2, “Antimicrobial compositions” (Firmenich SA, priority 2018, dated 2025).
Like-named read-outs stand apart in the source and are kept apart here.

Test system: C. xerosis ATCC 373
Test: BCT test (bacterial contact time), 120 s, log reduction / effect fraction; CI by Compusyn
Type: cell-based
Details: Corynebacterium xerosis, ATCC373, 2 min; for log reduction at 0.5 % strength: dose 0.5% w/v; for log reduction at 0.75 % strength: dose 0.75% w/v; for log reduction at 1 % strength: dose 1.0% w/v; for log reduction at 1.25 % strength: dose 1.25% w/v; for log reduction at 1.5 % strength: dose 1.5% w/v; for log reduction at 0.6 % strength: dose 0.6% w/v; for log reduction at 0.1 % strength: dose 0.1% w/v; for log reduction at 0.15 % strength: dose 0.15% w/v
Method: C. xerosis: Suspensions of the C. xerosis ATCC 373 strain were prepared as follows: Stock cultures (stored at −80° C.) were thawed and subcultured onto Tryptic Soy Agar media with Tween 80 (TSA-TW80), and incubated at 37° C. for 48 h. The primary cultures were subcultured onto TSA-TW80 again, to prepare the secondary cultures. Single colonies of the secondary cultures were selected and used to inoculate 30 ml brain heart infusion broth with Tween 80 (BHI-TW80). The inoculated broth was incubated at 37° C. at 180 rpm for 24 h. Aliquots (1 ml) of the 24 h culture were inoculated into 30 ml of fresh BHI-TW80 broth media, and incubated at 37° C. at 180 rpm for 48 h. Aliquots (2-3 ml) of the 48 h culture were inoculated into four 50 ml of fresh BHI-TW80 broth media, and incubated at 37° C. 180 rpm for 4-6 hrs. When the OD 600 nm reached the target value of 1.6, cells were harvested by centrifugation at 5000 rpm for 10 min, and then resuspended in the same fresh BHI-TW80 at a concentration of 10^9 to 10^10 cfu/mL. This suspension was used as the bacterial suspension for the BCT test.
BCT Test: Test compositions at a range of concentrations (either combinations of more than one perfume ingredient, and comparative compositions comprising the single perfume ingredients) were prepared in ethanol. Five replicates of each test composition were added into 96-well microtiter plates (120 μl per well), with row B containing control compositions containing the ethanol solution alone. 120 μl of bacterial cell suspensions at a concentration of approximately 1×10^8 bacteria per mL (as prepared above) were added to each well of the microtiter plate. The bacterial suspensions were incubated with the test solutions for 45, 60, or 120 seconds. Following the incubation of the bacterial suspensions with the test solutions, serial dilutions of the bacterial suspensions were generated (three serial 1:10 dilutions, followed by 17 serial 1:2 dilutions), in multiwell microtiter plates.
Each plate was sealed and incubated at 37° C. under agitation (180 rpm). After incubation, the turbidity of the wells (OD600 nm) was determined using a Tecan microplate reader. Turbid wells were regarded as positive growth, due to the presence of viable cells. The total number of viable cells (log CFU) for each sample was calculated. And the log reduction for each test composition at the final concentration (dose) was calculated against the control sample of the ethanol solution.
Determination of Synergy via the Combination Index (CI): The CI was calculated using Compusyn software (ComboSyn, Inc., as created by Dr. Dorothy Chou in 2005), according to the manufacturer's instructions. The concentration of each test composition (combinations of more than one perfume ingredient, and comparative compositions comprising the single perfume ingredients used to generate the combination) and their corresponding effect fraction was entered, and the corresponding CI calculated.
When the calculated CI values were less than 0.9, the combination of perfume ingredients was regarded as having synergistic effect. When the calculated CI was between 1.0 a 0.9, the combination of perfume ingredients was regarded as having an additive effect. When the calculated CI was greater than 1.0, the combination of perfume ingredients was regarded as having an antagonistic effect.

[1] = dose 0.25% w/v, contact 120 s, 25% EtOH, read-out: Log reduction
[2] = dose 0.4% w/v, contact 120 s, 25% EtOH, read-out: Log reduction
[3] = dose 0.2% w/v, contact 120 s, 25% EtOH, read-out: Log reduction
[4] = dose 0.3% w/v, contact 120 s, 25% EtOH, read-out: Log reduction

Structure (SMILES): CC(=O)OCc1ccccc1 [Benzyl acetate, benzyl acetate]
- log reduction at 0.25 % strength [1]: 0
- log reduction at 0.4 % strength [2]: 1.1
- log reduction at 0.5 % strength (contact 120 s, 25% EtOH): 2.8
- log reduction at 0.75 % strength (contact 120 s, 25% EtOH): 4.6
- log reduction at 1 % strength (contact 120 s, 25% EtOH): 5.2

Structure (SMILES): Cc1ccc2c(c1)OCC(=O)CO2 [Calone, 7-methyl-2H-1,5-benzodioxepin-3(4H)-one]
- log reduction at 0.5 % strength (contact 120 s, 25% EtOH): 0.2
- log reduction at 0.75 % strength (contact 120 s, 25% EtOH): 0.6
- log reduction at 1 % strength (contact 120 s, 25% EtOH): 3.2
- log reduction at 1.25 % strength (contact 120 s, 25% EtOH): 6
- log reduction at 1.5 % strength (contact 120 s, 25% EtOH): 6.8

Structure (SMILES): OC/C=C/c1ccccc1 [Cinnamic alcohol, (2E)-3-phenyl-2-propen-1-ol]
- log reduction at 0.25 % strength [1]: 0
- log reduction at 0.5 % strength (contact 120 s, 25% EtOH): 2.9
- log reduction at 0.6 % strength (contact 120 s, 25% EtOH): 4.3
- log reduction at 0.7 % strength (dose 0.7% w/v, contact 120 s, 25% EtOH): 6
- log reduction at 0.8 % strength (dose 0.8% w/v, contact 120 s, 25% EtOH): 7.2

Structure (SMILES): O=c1ccc2ccccc2o1 [Coumarine, 2H-chromen-2-one]
- log reduction at 0.75 % strength (contact 120 s, 25% EtOH): -0.2
- log reduction at 1 % strength (contact 120 s, 25% EtOH): 0.8
- log reduction at 1.25 % strength (contact 120 s, 25% EtOH): 2.6
- log reduction at 1.5 % strength (contact 120 s, 25% EtOH): 2.7

Structure (SMILES): CCCCCCC1CCC(=O)O1 (stereo not shown) [Decal]
- log reduction at 0.1 % strength (contact 120 s, 25% EtOH): 0.1
- log reduction at 0.15 % strength (contact 120 s, 25% EtOH): 2.2
- log reduction at 0.2 % strength [3]: 4.6
- log reduction at 0.25 % strength [1]: 5.4
- log reduction at 0.3 % strength [4]: 6.1

Structure (SMILES): C=CCc1ccc(O)c(OC)c1 [Eugenol F, 2-Methoxy-4-(prop-2-en-1-yl)phenol]
- log reduction at 0.1 % strength (contact 120 s, 25% EtOH): 0.1
- log reduction at 0.2 % strength [3]: 0.4
- log reduction at 0.25 % strength [1]: 1.8
- log reduction at 0.3 % strength [4]: 2.7
- log reduction at 0.4 % strength [2]: 5.1
- log reduction at 0.5 % strength (contact 120 s, 25% EtOH): 6.3

Structure (SMILES): CC(C)=CCC/C(C)=C/CO [Geraniol Pur]
- log reduction at 0.1 % strength (contact 120 s, 25% EtOH): 0.9
- log reduction at 0.125 % strength (dose 0.125% w/v, contact 120 s, 25% EtOH): 3.6
- log reduction at 0.15 % strength (contact 120 s, 25% EtOH): 4.8
- log reduction at 0.175 % strength (dose 0.175% w/v, contact 120 s, 25% EtOH): 6.8
- log reduction at 0.2 % strength [3]: 7

Structure (SMILES): CC(C=O)Cc1ccc2c(c1)OCO2 (stereo not shown) [Heliopropanal, 3-(1,3-Benzodioxol-5-yl)-2-methylpropanal]
- log reduction at 0.2 % strength: 0.1
- log reduction at 0.25 % strength: 0.3
- log reduction at 0.3 % strength: 1.4
- log reduction at 0.35 % strength: 1.8
- log reduction at 0.4 % strength: 2.2

Structure (SMILES): C/C=C/c1ccc(O)c(OC)c1 [Isoeugenol, 2-Methoxy-4-(prop-1-en-1-yl)phenol]
- log reduction at 0.25 % strength [1]: 2.4
- log reduction at 0.3 % strength [4]: 3.4
- log reduction at 0.4 % strength [2]: 5
- log reduction at 0.5 % strength (contact 120 s, 25% EtOH): 6.3
- log reduction at 0.6 % strength (contact 120 s, 25% EtOH): 6.6

Structure (SMILES): CC(C)=CCC/C(C)=C\CO [Nerol, (Z)-3,7-dimethyl-2,6-octadien-1-ol]
- log reduction at 0.08 % strength (dose 0.08% w/v, contact 120 s, 25% EtOH): -0.1
- log reduction at 0.1 % strength (contact 120 s, 25% EtOH): 0.5
- log reduction at 0.12 % strength (dose 0.12% w/v, contact 120 s, 25% EtOH): 2.6
- log reduction at 0.14 % strength (dose 0.14% w/v, contact 120 s, 25% EtOH): 4.9
- log reduction at 0.16 % strength (dose 0.16% w/v, contact 120 s, 25% EtOH): 7.2

Structure (SMILES): C=C(C)[C@@H]1CC=C(CO)CC1 [Perycorolle, (S)-(−)-(4-Isopropenyl-1-cyclohexenyl)methanol]
- log reduction at 0.1 % strength (contact 120 s, 25% EtOH): 0.2
- log reduction at 0.15 % strength (contact 120 s, 25% EtOH): 3.4
- log reduction at 0.2 % strength [3]: 4.8
- log reduction at 0.25 % strength [1]: 6.5
- log reduction at 0.3 % strength [4]: 6.4

Structure (SMILES): CC(CCO)CCc1ccccc1 (stereo not shown) [Phenylhexanol, 3-methyl-5-phenyl-1-pentanol]
- log reduction at 0.15 % strength (contact 120 s, 25% EtOH): 2.5
- log reduction at 0.2 % strength [3]: 4.2
- log reduction at 0.25 % strength [1]: 5.1
- log reduction at 0.3 % strength [4]: 5.9

Structure (SMILES): CC1=CCC(C(C)(C)O)CC1 (stereo not shown) [Terpineol Ord, 2-(4-Methylcyclohex-3-en-1-yl)propan-2-ol]
- log reduction at 0.25 % strength [1]: 2.9
- log reduction at 0.3 % strength [4]: 3.9
- log reduction at 0.35 % strength (dose 0.35% w/v, contact 120 s, 25% EtOH, read-out: Log reduction): 6
- log reduction at 0.4 % strength [2]: 6.4

Structure (SMILES): CCC(C)(O)CCCC(C)C (stereo not shown) [Tetralinol, 3,7-Dimethyl-3-octanol]
- log reduction at 0.05 % strength (dose 0.05% w/v, contact 120 s, 25% EtOH): 0.1
- log reduction at 0.2 % strength [3]: 5.7
- log reduction at 0.25 % strength [1]: 6.4
- log reduction at 0.3 % strength [4]: 6.5
